According to patent publication US8193356B2, “Heterocycle compound, and production process and application thereof” (Aska Pharmaceutical Co., Ltd., priority 2005, dated 2012):

What was measured:
[1] = system: T1, PDE IV isozyme separated from U937 cultured cell; experiment: PDE IV inhibitory action; format: biochemical; details: cAMP as substrate, 30° C. for 20 minutes, Probit method
T1 construct: PDE IV isozyme separated from U937 cultured cell by an ion exchange chromatography was used
Procedure: PDE IV isozyme separated from U937 cultured cell by an ion exchange chromatography was used. The PDE IV isozyme was added to ethylene glycol so that the final concentration of the isozyme was 30% by weight, and the solution was stored at −20° C. The stored solution was dissolved in use. The enzyme activity was measured by using cAMP as a substrate.
On the other hand, the test compound was dissolved in dimethylsulfoxide (DMSO) so that the final concentration of the test compound was 1% by weight (2.5 μL/tube), and the resulting solution was named Solution B.
Formulation of the incubation buffer (pH 7.5): Tris-hydrochloric acid (50 mM), magnesium chloride (6 mM), dithiothreitol (2.5 mM), 5-nucleotidase (4 μg/mL), bovine serum albumin (0.23 mg/mL), and cAMP (1 μM)
A mixture of the Solution B of the test compound and the Solution A was incubated at 30° C. for 20 minutes. Then, 1 mL of a slurry of an anion exchange resin (AG1-X8, 200-400 mesh, chloride form; manufactured by Bio-Rad Laboratories, Inc.) was added thereto, and the reaction was stopped by adsorption of an unreacted substrate on the resin.
After the stop of the reaction, the reaction mixture was centrifuged at a centrifugal acceleration of 800×g for 10 minutes, and 250 μL of the resulting supernatant was transferred in a vial. To the vial was added 5 mL of ACS-II (a scintillator manufactured by Amarsham Bioscience), and a [^3H]-adenosine radio activity was measured as a PDE IV activity by a liquid scintillation counter.

[2] = system: TNFα production; experiment: Inhibitory action on galactosamine- and LPS-induced TNFα production; format: in vivo; details: mouse, 0.5 mg/kg orally, serum TNFα one hour after galactosamine and LPS i.v., ELISA
Procedure: A dose (0.5 mg/kg) of the test compound suspended in 0.5% (W/V) CMC-Na aqueous solution was orally administered to a mouse. After one hour, galactosamine (800 mg/kg) and LPS (5 μg/kg) were intravenously administered to induce TNFα production. The amount of TNFα in serum one hour after the administration of galactosamine and LPS was measured by ELISA method.

[3] = molecular target: T2, CYP3A4 (Homo sapiens, UniProt P08684); experiment: Inhibitory action on drug metabolizing enzyme (CYP3A4/BFC high throughput inhibitor screening kit); format: in vitro ADME; details: CYP3A4 expression system microsome, BFC substrate, 37° C. for 30 minutes
T2 construct: purchased BD Bioscience
Procedure: (§1) Inhibitory actions on CYP2D6 and CYP3A4 were measured by using a CYP2D6/AMMC high throughput inhibitor screening kit and a CYP3A4/BFC high throughput inhibitor screening kit (both manufactured by BD Bioscience), respectively. That is, an NADPH generation system, a cofactor, and the test compound were dispersed in a 96-well plate, and AMMC (CYP2D6) and BFC (CYP3A4), which were fluorescent substrates, were added to each well. Further, CYP2D6 expression system microsome and CYP3A4 expression system microsome were added to each well and incubated at 37° C. for 30 minutes. […] Incidentally, as a control substance of this test, roflumilast was used.

[4] = molecular target: T3, CYP2D6 (Homo sapiens, UniProt P10635); experiment: Inhibitory action on drug metabolizing enzyme (CYP2D6/AMMC high throughput inhibitor screening kit); format: in vitro ADME; details: CYP2D6 expression system microsome, AMMC substrate, 37° C. for 30 minutes
T3 construct: purchased BD Bioscience
Procedure: as §1

T3 sequence (P10635 whole entry): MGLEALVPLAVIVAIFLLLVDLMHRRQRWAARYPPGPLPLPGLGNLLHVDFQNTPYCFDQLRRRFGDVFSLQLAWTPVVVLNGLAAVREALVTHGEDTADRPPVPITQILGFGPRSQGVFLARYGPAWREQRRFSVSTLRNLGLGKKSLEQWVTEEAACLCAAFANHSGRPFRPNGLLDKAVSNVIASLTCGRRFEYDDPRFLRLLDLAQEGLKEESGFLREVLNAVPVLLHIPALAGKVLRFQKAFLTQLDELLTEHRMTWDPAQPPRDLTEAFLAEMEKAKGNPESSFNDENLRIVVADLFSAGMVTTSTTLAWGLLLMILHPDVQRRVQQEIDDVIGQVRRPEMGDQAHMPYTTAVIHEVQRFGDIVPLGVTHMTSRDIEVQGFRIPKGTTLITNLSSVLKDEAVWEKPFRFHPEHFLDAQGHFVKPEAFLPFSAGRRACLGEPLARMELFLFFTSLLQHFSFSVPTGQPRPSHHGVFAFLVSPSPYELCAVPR
T2 sequence (P08684 whole entry): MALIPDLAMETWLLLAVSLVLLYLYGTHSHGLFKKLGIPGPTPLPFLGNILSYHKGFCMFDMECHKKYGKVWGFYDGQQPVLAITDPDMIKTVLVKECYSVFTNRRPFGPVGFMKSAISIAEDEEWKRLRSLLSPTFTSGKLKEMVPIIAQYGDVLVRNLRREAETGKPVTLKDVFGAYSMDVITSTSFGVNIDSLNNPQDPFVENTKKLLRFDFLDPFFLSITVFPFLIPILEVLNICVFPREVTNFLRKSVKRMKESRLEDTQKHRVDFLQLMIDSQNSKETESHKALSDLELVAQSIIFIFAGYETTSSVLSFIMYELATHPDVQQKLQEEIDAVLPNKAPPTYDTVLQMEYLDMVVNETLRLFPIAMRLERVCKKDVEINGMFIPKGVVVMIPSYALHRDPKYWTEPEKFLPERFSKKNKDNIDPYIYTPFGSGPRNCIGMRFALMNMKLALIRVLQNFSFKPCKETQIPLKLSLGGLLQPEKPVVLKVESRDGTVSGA

Row | Structure (SMILES) | Inhibitory rate (%) of TNFα production in 0.5 mg/kg [2] | melting point | further results
1 | O=c1c2c(Cc3ccccc3)n[nH]c2c2cccnc2n1-c1cccc(C(F)(F)F)c1 [Example 2, 3-Benzyl-5-(3-trifluoromethylphenyl)-1H-pyrazolo[4,3-c][1,8]-naphthyridin-4(5H)-one] | 55% |  | IC50 [1]: 0.007 µM
2 | CC(c1ccccc1)c1n[nH]c2c1c(=O)n(-c1ccccc1)c1ncccc21 (stereo not drawn) [Example 11, 5-Phenyl-3-(1-phenylethyl)-1H-pyrazolo[4,3-c][1,8]naphthyridin-4(5H)-one] | 49% |  | IC50 [3]: 8.9 µM; IC50 [4]: > 10 µM; IC50 [1]: 0.014 µM
3 | O=c1c2c(Cc3ccccc3)n[nH]c2c2cccnc2n1-c1cccc(OC(F)(F)F)c1 [Example 1, 3-Benzyl-5-(3-trifluoromethoxyphenyl)-1H-pyrazolo[4,3-c][1,8]-naphthyridin-4(5H)-one] | 47% |  | IC50 [1]: 0.003 µM
4 | O=C(Nc1c(Cl)cncc1Cl)c1ccc(OC(F)F)c(OCC2CC2)c1 [Roflumilast, reference compound] | 50% |  | 
5 | O=c1c2c(Cc3ccccc3C(F)(F)F)n[nH]c2c2cccnc2n1-c1ccccc1 [Example 8, 5-Phenyl-3-(2-trifluoromethylbenzyl)-1H-pyrazolo[4,3-c][1,8]naphthyridin-4(5H)-one] | 51% | 292 to 294 °C | IC50 [3]: > 10 µM; IC50 [4]: > 10 µM; IC50 [1]: 0.003 µM
6 | O=c1c2c(Cc3ccccc3)n[nH]c2c2cccnc2n1-c1cccc(C(F)(F)F)c1 (hydrate or solvate) [Example 2, 3-Benzyl-5-(3-trifluoromethylphenyl)-1H-pyrazolo[4,3-c][1,8]-naphthyridin-4(5H)-one] |  | 226 to 228 °C | 
7 | CC(c1ccccc1)c1n[nH]c2c1c(=O)n(-c1cccc(OC(F)(F)F)c1)c1ncccc21 (stereo not drawn) [Example 36, 3-(1-Phenylethyl)-5-(3-trifluoromethoxyphenyl)-1H-pyrazolo[4,3-c][1,8]naphthyridin-4(5H)-one] |  | 183 to 185 °C | 
8 | Cc1ccccc1Cc1n[nH]c2c1c(=O)n(-c1cccc(C(F)(F)F)c1)c1ncccc21 (hydrate or solvate) [Example 40, 3-(2-Methylbenzyl)-5-(3-trifluoromethylphenyl)-1H-pyrazolo[4,3-c][1,8]-naphthyridin-4(5H)-one] |  | 249 to 252 °C | 
9 | O=c1c2c(Cc3cccs3)n[nH]c2c2cccnc2n1-c1cccc(OC(F)(F)F)c1 [Example 45, 3-(2-Thienylmethyl)-5-(3-trifluoromethoxyphenyl)-1H-pyrazolo[4,3-c][1,8]-naphthyridin-4(5H)-one] |  | 234 to 238 °C | 
10 | O=c1c2c(Cc3cccc(C(F)(F)F)c3)n[nH]c2c2cccnc2n1-c1cccc(OC(F)(F)F)c1 [Example 24, 5-(3-Trifluoromethoxyphenyl)-3-(3-trifluoromethylbenzyl)-1H-pyrazolo[4,3-c][1,8]naphthyridin-4(5H)-one] |  | 206 to 209 °C | 
11 | O=c1c2c(Cc3ccc(OC(F)(F)F)cc3)n[nH]c2c2cccnc2n1-c1cccc(OC(F)(F)F)c1 [Example 28, 3-(4-Trifluoromethoxybenzyl)-5-(3-trifluoromethoxyphenyl)-1H-pyrazolo[4,3-c][1,8]naphthyridin-4(5H)-one] |  | 129 to 132 °C | 
12 | O=c1c2c(Cc3ccccc3Cl)n[nH]c2c2cccnc2n1-c1cccc(C(F)(F)F)c1 (hydrate or solvate) [Example 39, 3-(2-Chlorobenzyl)-5-(3-trifluoromethylphenyl)-1H-pyrazolo[4,3-c][1,8]-naphthyridin-4(5H)-one] |  | 276 to 278 °C | 
13 | O=c1c2c(CCCCCCc3ccccc3)n[nH]c2c2cccnc2n1-c1ccccc1 [Example 12, 5-Phenyl-3-(6-phenylhexyl)-1H-pyrazolo[4,3-c][1,8]naphthyridin-4(5H)-one] |  | 150 to 151 °C | 
14 | O=c1c2c(Cc3ccsc3)n[nH]c2c2cccnc2n1-c1cccc(OC(F)(F)F)c1 [Example 46, 3-(3-Thienylmethyl)-5-(3-trifluoromethoxyphenyl)-1H-pyrazolo[4,3-c][1,8]-naphthyridin-4(5H)-one] |  | 247 to 251 °C | 
15 | O=c1c2c(Cc3ccccc3)n[nH]c2c2cnccc2n1-c1ccccc1 [Example 15, 3-Benzyl-5-phenyl-1H-pyrazolo[4,3-c][1,6]naphthyridin-4(5H)-one] |  | 284 to 287 °C | 
